Laboratory results published in PubChem BioAssay AID328 (DTP/NCI, 2004).
Toxic doses and inconclusive results are not listed.

Tested on: BDF1 mice, P388 leukemia ip, median survival T/C
Assay: NCI In Vivo Anticancer Drug Screen. Data for tumor model P388 Leukemia (intraperitoneal) in B6D2F1 (BDF1) mice
Details: endpoint: median survival time, higher = longer survival
How it was run: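 Vehicle-dosed animals serve as the reference; survival of compound-dosed, tumour-implanted mice is divided by it.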

[1] = dose: 100.0 mg/kg/injection, schedule: Q01DX009 (ip), vehicle: water
[2] = dose: 200.0 mg/kg/injection, schedule: Q04DX003 (ip), vehicle: saline
[3] = dose: 200.0 mg/kg/injection, schedule: Q04DX003 (ip), vehicle: Klucel (hydroxypropylcellulose) (HPC)
[4] = dose: 400.0 mg/kg/injection, schedule: Q04DX003 (ip), vehicle: Klucel (hydroxypropylcellulose) (HPC)
[5] = dose: 100.0 mg/kg/injection, schedule: Q01DX009 (ip), vehicle: saline with Tween-80
[6] = dose: 50.0 mg/kg/injection, schedule: Q01DX009 (ip), vehicle: saline with Tween-80
[7] = dose: 100.0 mg/kg/injection, schedule: Q04DX003 (ip), vehicle: saline with Tween-80
[8] = dose: 200.0 mg/kg/injection, schedule: Q04DX003 (ip), vehicle: saline with Tween-80
[9] = dose: 400.0 mg/kg/injection, schedule: Q04DX003 (ip), vehicle: saline with Tween-80
[10] = dose: 50.0 mg/kg/injection, schedule: Q04DX003 (ip), vehicle: saline with Tween-80
[11] = dose: 100.0 mg/kg/injection, schedule: Q04DX003 (ip), vehicle: Klucel (hydroxypropylcellulose) (HPC)

## CCN(CC)CCNc1ccc(CO)c2sc3ccccc3c(=O)c12
dose: 17.3 mg/kg/injection, schedule: Q01DX009 (ip), vehicle: water
  T/C: 108 % of control
dose: 18.75 mg/kg/injection, schedule: Q01DX009 (ip), vehicle: saline
  T/C: 104 % of control
dose: 21.6 mg/kg/injection, schedule: Q01DX009 (ip), vehicle: water
  T/C: 119 % of control
dose: 28.8 mg/kg/injection, schedule: Q01DX009 (ip), vehicle: water
  T/C: 122 % of control
dose: 42.0 mg/kg/injection, schedule: Q01DX009 (ip), vehicle: water
  T/C: 150 % of control
dose: 48.0 mg/kg/injection, schedule: Q01DX009 (ip), vehicle: water
  T/C: 170 % of control
dose: 60.0 mg/kg/injection, schedule: Q01DX009 (ip), vehicle: water
  T/C: 160 % of control
dose: 70.0 mg/kg/injection, schedule: Q01DX009 (ip), vehicle: water
  T/C: 122 % of control
dose: 75.0 mg/kg/injection, schedule: Q01DX009 (ip), vehicle: saline
  T/C: 116 % of control
dose: 80.0 mg/kg/injection, schedule: Q01DX009 (ip), vehicle: water
  T/C: 188 % of control
dose: 88.0 mg/kg/injection, schedule: Q04DX003 (ip), vehicle: saline
  T/C: 109 % of control
[1]
  T/C: 113 % of control
dose: 117.0 mg/kg/injection, schedule: Q01DX009 (ip), vehicle: water
  T/C: 97 % of control
dose: 132.0 mg/kg/injection, schedule: Q04DX003 (ip), vehicle: saline
  T/C: 109 % of control
[2]
  T/C: 122 % of control
dose: 300.0 mg/kg/injection, schedule: Q04DX003 (ip), vehicle: saline
  T/C: 163 % of control

## COc1cccc(CCCC(=O)O)c1
[3]
  T/C: 95 % of control
[4]
  T/C: 87 % of control

## Cc1ccc(NC(=O)Oc2ccc(Br)cc2Br)c([N+](=O)[O-])c1
[5]
  T/C: 122 % of control

## O/N=C(\c1ccccc1)c1ccccn1
dose: 12.5 mg/kg/injection, schedule: Q01DX009 (ip), vehicle: saline with Tween-80
  T/C: 96 % of control
dose: 25.0 mg/kg/injection, schedule: Q01DX009 (ip), vehicle: saline with Tween-80
  T/C: 90 % of control
[6]
  T/C: 96 % of control

## O=C(O)C(O)C(O)C(O)C(O)C(=O)O (stereo unspecified)
dose: 50.0 mg/kg/injection, schedule: Q01DX010 (ip), vehicle: saline
  T/C: 100 % of control
dose: 100.0 mg/kg/injection, schedule: Q01DX010 (ip), vehicle: saline
  T/C: 109 % of control
dose: 200.0 mg/kg/injection, schedule: Q01DX010 (ip), vehicle: saline
  T/C: 100 % of control
dose: 400.0 mg/kg/injection, schedule: Q01DX010 (ip), vehicle: saline
  T/C: 104 % of control
dose: 600.0 mg/kg/injection, schedule: Q01DX010 (ip), vehicle: saline
  T/C: 88 % of control
dose: 750.0 mg/kg/injection, schedule: Q01DX010 (ip), vehicle: saline
  T/C: 88 % of control

## C=C1C(=O)OC2/C=C(/C)C(OC(C)=O)CC(O)/C(C)=C\C(OC(=O)/C(C)=C\C)C12 (stereo unspecified)
dose: 2.5 mg/kg/injection, schedule: Q01DX009 (ip), vehicle: saline + alcohol
  T/C: 100 % of control
dose: 5.0 mg/kg/injection, schedule: Q01DX009 (ip), vehicle: saline + alcohol
  T/C: 118 % of control
dose: 10.0 mg/kg/injection, schedule: Q01DX009 (ip), vehicle: saline + alcohol
  T/C: 109 % of control
dose: 20.0 mg/kg/injection, schedule: Q01DX009 (ip), vehicle: saline + alcohol
  T/C: 109 % of control
dose: 27.0 mg/kg/injection, schedule: Q01DX010 (ip), vehicle: saline
  T/C: 115 % of control
dose: 40.0 mg/kg/injection, schedule: Q01DX009 (ip), vehicle: saline + alcohol
  T/C: 122 % of control
dose: 40.0 mg/kg/injection, schedule: Q01DX010 (ip), vehicle: saline
  T/C: 110 % of control
dose: 80.0 mg/kg/injection, schedule: Q01DX009 (ip), vehicle: saline + alcohol
  T/C: 86 % of control

## COc1cc(OC)cc(C2=NNc3n[nH]c(=S)n3N2)c1
[7]
  T/C: 100 % of control
[8]
  T/C: 95 % of control
[9]
  T/C: 100 % of control

## O=C(O)CNC(=O)Nc1ccccc1
dose: 25.0 mg/kg/injection, schedule: Q04DX003 (ip), vehicle: saline with Tween-80
  T/C: 91 % of control
[10]
  T/C: 100 % of control
[7]
  T/C: 100 % of control
[8]
  T/C: 87 % of control
[9]
  T/C: 104 % of control

## CC(C)CC(CC(C)C)NCC(C)OC(=O)c1ccc([N+](=O)[O-])cc1 (stereo unspecified)
dose: 50.0 mg/kg/injection, schedule: Q01DX009 (ip), vehicle: water
  T/C: 106 % of control
dose: 50.0 mg/kg/injection, schedule: Q04DX003 (ip), vehicle: water
  T/C: 100 % of control
[1]
  T/C: 92 % of control
dose: 100.0 mg/kg/injection, schedule: Q04DX003 (ip), vehicle: water
  T/C: 103 % of control
dose: 200.0 mg/kg/injection, schedule: Q01DX009 (ip), vehicle: water
  T/C: 103 % of control
dose: 200.0 mg/kg/injection, schedule: Q04DX003 (ip), vehicle: water
  T/C: 94 % of control
dose: 400.0 mg/kg/injection, schedule: Q04DX003 (ip), vehicle: water
  T/C: 88 % of control

## ClC(c1ccccc1)(c1ccccc1)c1ccccc1
dose: 100.0 mg/kg/injection, schedule: Q04DX003 (ip), vehicle: other
  T/C: 100 % of control
dose: 200.0 mg/kg/injection, schedule: Q04DX003 (ip), vehicle: other
  T/C: 108 % of control
dose: 400.0 mg/kg/injection, schedule: Q04DX003 (ip), vehicle: other
  T/C: 104 % of control

## CCC(=O)c1cc(OC)cc(OC)c1
dose: 100.0 mg/kg/injection, schedule: Q04DX003 (ip), vehicle: saline
  T/C: 115 % of control
[2]
  T/C: 120 % of control
dose: 400.0 mg/kg/injection, schedule: Q04DX003 (ip), vehicle: saline
  T/C: 120 % of control

## CC1=CCC(CC(N)=O)C1(C)C (stereo unspecified)
dose: 100.0 mg/kg/injection, schedule: Q01DX001 (ip), vehicle: saline with Tween-80
  T/C: 105 % of control
dose: 200.0 mg/kg/injection, schedule: Q01DX001 (ip), vehicle: saline with Tween-80
  T/C: 103 % of control
dose: 400.0 mg/kg/injection, schedule: Q01DX001 (ip), vehicle: saline with Tween-80
  T/C: 92 % of control

## COC(=O)CCC#CC#CCCC(=O)OC
[11]
  T/C: 109 % of control
[3]
  T/C: 104 % of control
[4]
  T/C: 109 % of control

## Cc1cccc(NC(=O)C2CCC(C)(C(=O)O)C2(C)C)c1 (stereo unspecified)
[10]
  T/C: 100 % of control
[7]
  T/C: 95 % of control
[8]
  T/C: 104 % of control

## CC(C)(C)C(=O)C(Oc1ccc(Cl)cc1)n1cncn1 (stereo unspecified)
[6]
  T/C: 100 % of control
[5]
  T/C: 100 % of control
dose: 200.0 mg/kg/injection, schedule: Q01DX009 (ip), vehicle: saline with Tween-80
  T/C: 100 % of control

## c1cncc(-c2ncnc3c2Cc2ccccc2-3)c1
dose: 75.0 mg/kg/injection, schedule: Q01DX009 (ip), vehicle: Klucel (hydroxypropylcellulose) (HPC)
  T/C: 100 % of control
dose: 150.0 mg/kg/injection, schedule: Q01DX009 (ip), vehicle: Klucel (hydroxypropylcellulose) (HPC)
  T/C: 113 % of control

## COc1cc([N+](=O)[O-])c(C)cc1NC(=O)c1ccc(OC)c(OC)c1
dose: 0.78 mg/kg/injection, schedule: Q01DX009 (ip), vehicle: saline
  T/C: 100 % of control
dose: 1.56 mg/kg/injection, schedule: Q01DX009 (ip), vehicle: saline
  T/C: 115 % of control
dose: 3.12 mg/kg/injection, schedule: Q01DX009 (ip), vehicle: saline
  T/C: 88 % of control
dose: 6.25 mg/kg/injection, schedule: Q01DX009 (ip), vehicle: saline
  T/C: 86 % of control

## CC(=O)C(O)N1C(=O)C=CC1=O (stereo unspecified)
dose: 0.31 mg/kg/injection, schedule: Q04DX003 (ip), vehicle: saline
  T/C: 95 % of control
dose: 0.62 mg/kg/injection, schedule: Q04DX003 (ip), vehicle: saline
  T/C: 100 % of control
dose: 1.25 mg/kg/injection, schedule: Q04DX003 (ip), vehicle: saline
  T/C: 100 % of control
dose: 2.5 mg/kg/injection, schedule: Q04DX003 (ip), vehicle: saline
  T/C: 91 % of control
dose: 5.0 mg/kg/injection, schedule: Q04DX003 (ip), vehicle: saline
  T/C: 91 % of control

## CC(C(=O)O)N1C(=O)c2ccccc2C1=O (stereo unspecified)
dose: 100.0 mg/kg/injection, schedule: Q01DX009 (ip), vehicle: Klucel (hydroxypropylcellulose) (HPC)
  T/C: 109 % of control
[11]
  T/C: 100 % of control
dose: 200.0 mg/kg/injection, schedule: Q01DX009 (ip), vehicle: Klucel (hydroxypropylcellulose) (HPC)
  T/C: 109 % of control
[3]
  T/C: 104 % of control
dose: 400.0 mg/kg/injection, schedule: Q01DX009 (ip), vehicle: Klucel (hydroxypropylcellulose) (HPC)
  T/C: 118 % of control
[4]
  T/C: 100 % of control
